The values below come from US12305162B2, “Method for expanding propagation of Metarhizium rileyi MR006 and use thereof” (priority 2023, dated 2025).

Test systems include Helicoverpa armigera; Spodoptera litura; Spodoptera frugiperda.
Common to all, as to test: Sub-lethal dose (LC25) of chlorantraniliprole on 2nd instar larvae
Common to all, as to assay type: in vivo

On to `CNC(=O)c1cc(Cl)cc(C)c1NC(=O)c1cc(Br)nn1-c1ncccc1Cl` [chlorantraniliprole], for which the LC25 value in the test with Helicoverpa armigera was found to be 0.015 µg/g; with Spodoptera litura, 0.008 µg/g; in the test on Spodoptera frugiperda, 0.006 µg/g.
